Assay results from patent publication US11472843B2, “Malacidins and methods of use” (The Rockefeller University, priority 2017, dated 2022).

Columns and labels:
[1] = system: Streptococcus pneumoniae TCH8431; assay: MIC assay, S. pneumoniae; type: cell-based
Procedure: (§1) MIC assays were performed in duplicate in 96-well microtiter plates on the basis of the protocol recommended by the Clinical and Laboratory Standards Institute (Cockerill, 2012, Clinical and Laboratory Standards Institute). All presented data are the average of at least three independent assays. Stock solutions of malacidin or daptomycin (2 mg ml^−1 in H2O) were added to the first well in a row and serially diluted (twofold per transfer) across the microtiter plate. CaCl2 was supplemented to media at a final concentration of 15 mM and fetal bovine serum (ATCC) was added to media (1:10) to test the effect of serum. Overnight cultures of bacteria were diluted 5,000-fold, and 50 μl was used as an inoculum in each well. MIC values were determined by visual inspection after 18 h incubation (30° C., static growth). For the enhanced calcium titration experiments, standard MIC assays were performed with methicillin-resistant Staphylococcus aureus (MRSA) PFGE strain type USA300 in media supplemented with CaCl2 at: 25.0, 18.8, 14.1, 7.03, 3.52, 2.50, 1.76, 0.880, 0.440, 0.250 and 0 mM. To assess the effects of monovalent and divalent cations on malacidin activity, standard MIC assays were performed with MRSA USA300 in media supplemented with 15 mM CaCl2, MgCl2, MnCl2, ZnCl2, SrCl2, NaCl and KCl. To evaluate the effects of pulmonary surfactants on activity against a community-acquired pneumonia-causing pathogen, standard MIC assays were performed with Streptococcus pneumoniae TCH8431 in media supplemented with both 15 mM […] and Survanta (beractant) at a final concentration of 5, 1, 0.5, 0.25 or 0% (volume/volume (v/v) percent).

[2] = system: S. aureus NRS146; assay: MIC assay, S. aureus NRS146; type: cell-based, Staphylococcus aureus; conditions: β-lactams
Procedure: as §1

[3] = system: HEK293 cells; type: cell-based, human; conditions: viability, in the presence of calcium, 4.5 h
Procedure: (§2) Cytotoxicity against human cell lines was tested using an ATP release assay, CelITiter-Glo (Promega), according to the manufacturer's instructions. HEK293 cells (293FT, Thermo Fisher Scientific, no. R700-07) and MRC5 cells (ATCC CCL-171) were grown in complete DMEM media supplemented with 10% FBS, and were inspected visually for authentication and tested for mycoplasma contamination using a MycoAlert detection kit (Lonza). Cells were grown to confluence, trypsinized, counted and plated in 384-well cell culture plates at an appropriate density (2,500 cells per well for HEK293 and 1000 cells per well for MRC5). The test compound was added 24 h later in the presence of calcium, and viability was determined after 4.5 h of incubation. Experiments were performed with biological replicates. Haemolytic activity was evaluated by a red blood cell disc diffusion assay. Twenty-microlitre stocks of malacidin A and Triton X-100 were infused on filter discs, dried completely and then overlaid on 5% sheep blood agar plates (Hardy Diagnostics). The plates were incubated for 24 h at 20° C., and then checked for lysis.

[4] = system: MRC5 cells; type: cell-based, human
Procedure: as §2

[5] = system: E. faecium Com15; assay: MIC assay, E. faecium Com15; type: cell-based, Enterococcus faecium
Procedure: as §1

[6] = system: Klebsiella pneumonia ATCC 10031; assay: MIC assay, Klebsiella pneumonia; type: cell-based
Procedure: as §1

[7] = system: S. aureus NRS100; assay: MIC assay, S. aureus NRS100; type: cell-based, Staphylococcus aureus; conditions: β-lactams
Procedure: as §1

[8] = system: S. aureus USA300; assay: MIC assay, S. aureus USA300 (MRSA); type: cell-based, Staphylococcus aureus
Procedure: as §1

[9] = system: Salmonella enterica IR 715; assay: MIC assay, Salmonella enterica; type: cell-based
Procedure: as §1

[10] = system: S. aureus COL; assay: MIC assay, S. aureus COL; type: cell-based, Staphylococcus aureus; conditions: β-lactams
Procedure: as §1

[11] = Complex formation with cell wall precursors (TLC mobility shift), lipid II; type: binding
Procedure: Binding of malacidin to C55-P and lipid II was evaluated by incubating 1 nmol of each purified precursor with 0.5 nmol of malacidin or daptomycin in 100 mM Tris-HCl, pH 7.5, 0.1% Triton X-100, 13 mM MgCl2, and with or without 25 mM CaCl2, for 60 min at 37° C. Subsequently, the mixture was extracted twice with n-BuOH/6 M pyridinium acetate buffer, pH 4.2 (3:1, v/v). The butanol fraction was evaporated and the residue was dissolved in CHCl3/methanol (1:1, v/v). The resuspension was analysed for the loss of unbound malacidin or daptomycin to a complex by TLC analysis using chloroform/methanol/water/ammonia (88:48:10:1, v/v/v/v) as the solvent and detection by 254/366 nm visualization. Experiments were performed with biological replicates.

[12] = system: Pseudomonas aeruginosa PAO1; assay: MIC assay, P. aeruginosa; type: cell-based
Procedure: as §1

[13] = system: Escherichia coli DH5α; assay: MIC assay, E. coli DH5α; type: cell-based
Procedure: as §1

[14] = system: S. aureus NRS140; assay: MIC assay, S. aureus NRS140; type: cell-based, Staphylococcus aureus; conditions: β-lactams
Procedure: as §1

[15] = system: red blood cell (5% sheep blood agar plates); type: cell-based
Procedure: as §2

Substance: malacidin A
- Activity against S. pneumoniae in the presence of pulmonary surfactants ([1]; 15 mM CaCl2 and Survanta (beractant) 0-5% v/v): largely unaffected
- MIC ([1]; S. pneumoniae, 15 mM CaCl2): 0.8-2.0 μg m1^−1
- MIC ([1]; Streptococcus pneumoniae TCH8431): 0.1 to 0.2 µg/mL
- MIC ([2]; S. aureus NRS146, vancomycin (VISA), 15 mM CaCl2): 0.4-0.8 μg m1^−1
- MIC ([2]; Staphylococcus aureus NRS146, Vancomycin (VISA)): 0.4 to 0.8 µg/mL
- IC50 [3]: >100 μg m1^−1
- MIC (a = Viability assessed by ATP release assay) [4]: >100a μg mL^−1
- IC50 ([4]; MRC5, viability, in the presence of calcium, 4.5 h): >100 μg m1^−1
- MIC ([5]; E. faecium Com15, 15 mM CaCl2): 0.8-2.0 μg m1^−1
- MIC ([5]; Enterococcus faecium Com15): 0.8 to 2.0 µg/mL
- MIC [6]: >100 µg/mL
- MIC ([7]; S. aureus NRS100, tetracycline, 15 mM CaCl2): 0.2-0.8 μg m1^−1
- MIC ([7]; Staphylococcus aureus NRS100, Tetracycline): 0.2 to 0.8 µg/mL
- Dependence of antibiosis (MIC) against MRSA on calcium ([8]; MRSA USA300, CaCl2 0 to 25.0 mM): calcium-dependent
- MIC ([8]; S. aureus USA300 + 10% serum, 15 mM CaCl2): 0.2-0.8 μg m1^−1
- MIC ([8]; S. aureus USA300, acquired resistance β-lactams, 15 mM CaCl2): 0.2-0.8 μg m1^−1
- MIC ([8]; Staphylococcus aureus + 10% Serum, USA300): 0.2 to 0.8 µg/mL
- MIC ([8]; Staphylococcus aureus USA300, β-lactams (Methicillin, Oxacillin, Penicillin)): 0.2 to 0.8 µg/mL
- MIC [9]: >100 µg/mL
- MIC ([10]; S. aureus COL, 15 mM CaCl2): 0.2-0.8 μg m1^−1
- MIC ([10]; Staphylococcus aureus COL): 0.2 to 0.8 µg/mL
- Lipid-II-binding activity (TLC mobility shift) ([11]; 1 nmol precursor, 0.5 nmol antibiotic): lipid-II-dependent disappearance of the malacidin band
- Calcium dependence of the interaction with lipid II ([11]; with or without 25 mM CaCl2): calcium-dependent
- MIC [12]: >100 µg/mL
- MIC [13]: >100 µg/mL
- MIC ([14]; S. aureus NRS140, erythromycin, spectinomycin, 15 mM CaCl2): 0.4-0.8 μg m1^−1
- MIC ([14]; Staphylococcus aureus NRS140, Erythromycin, Spectinomycin): 0.4 to 2.0 µg/mL
- Haemolytic activity [15]: no hemolytic effects
